Results taken from PubChem BioAssay AID1259407 (Chemical Carcinogenesis Research Information System (CCRIS), 2018).
Calls of active or inactive are those of the source. The rule behind the calls is not given here.

Test system: CCRIS mutagenicity, Ames/micronucleus/aberration tests
Test: CCRIS mutagenicity studies
Conditions: Test System: AMES SALMONELLA TYPHIMURIUM, Metabolic Activation: RAT, LIVER, S-9, AROCLOR 1254, Method: STANDARD PLATE

CNC(=O)Oc1ccc(-c2ccccc2)cc1
mutagenic call (Strain/Indicator: TA98): inactive; negative
mutagenic call (Strain/Indicator: TA1535): active; positive
